Laboratory results as given in patent publication US20240342216A1, “METHODS OF TREATING CANCER” (Therapeutics By Design, LLC, priority 2021, published 2024).
Entries after “also recorded” stand apart in the source; their conditions may differ.

Key:
[1] = tested on: bulk tumor cell growth from prostate cancer; conditions: by activating SMAD 1/5/8 signaling; Bosukonda et al. 2009; cited from earlier work
[2] = tested on: human breast cancer stem cells; assay: mammosphere (tumorsphere) formation assay, self-renewal in vitro; assay type: cell-based; conditions: for inhibition of mammosphere / tumorsphere formation: non-adherent culture, serum-free stem cell medium, 5 to 7 days
Experimental: Isolated human breast cancer stem cells treated with BMP-7 (500 ng/ml) for 7 days in non-adherent culture.
To investigate Peptide 123 (SEQ ID NO: 1) and BMP-7 effects on cancer stem cell function, their ability to influence self-renewal in vitro by using the mammosphere assay was examined. The mammosphere assay was developed as a method to propagate mammary epithelial stem cells (MaSC) in vitro by Dontu et al. (Genes Dev 17: 1253-1270 (2003)).
A procedure as described in manufacturer's manual (ProMab, California) was followed to grow cancer stem cells into mammospheres. For mammosphere culture, isolated human breast cancer stem cells were seeded in six well ultralow adherence plates (Corning Inc., Corning, NY, USA) and grown as non-adherent cell suspensions in serum-free stem cell culture medium (ProMab, California). Primary and secondary mammosphere formation was achieved by using weekly trypsinization and dissociation, followed by reseeding in ultralow adherence six well plates.

[3] = tested on: human breast cancer stem cells; assay: FACS quantification of CD44+ and E-cadherin+ cells; assay type: cell-based; conditions: for percent loss of CD44+ cells / percent gain in E-cadherin+ cells: non-adherent culture 8 days, vs untreated; for change in CD44+ cells (stem cell phenotype), in words / change in E-Cadherin+ cells (epithelial phenotype), in words: vs untreated control
Experimental: Untreated cells were incubated with APC labeled mouse anti-human antibody to CD44 antibody and FITC labeled rat anti-human E-Cadherin antibody. Cells were gated to exclude events in water and events due to cell death and debris. Cells were then gated to identify CD44+ and E-Cadherin+ populations based on corresponding fluorescence activity and labeled R7 and R11 respectively. […] Untreated cells were incubated with corresponding isotype antibodies, APC labeled mouse IgG1 and FITC labeled mouse IgG1. Cells were gated to exclude events in water and events due to cell death and debris.
(§1) Cells were plated and incubated for 24 hours to form tumorspheres. On day 2, cells were treated with 300 μM P123, followed by subsequent treatments on days 3, 5, and 8. Cells were then incubated with APC labeled mouse anti-human CD44 antibody and FITC labeled rat anti-human E-Cadherin antibody. Cells were gated to exclude events in water and events due to cell death and debris. Cells were then gated to identify CD44+ and E-Cadherin+ populations based on corresponding fluorescence activity and labeled R7 and R11 respectively. […] Cells were treated with P123 as described in (A). Cells were then incubated with corresponding isotype antibodies, APC labeled mouse IgG1 and FITC labeled mouse IgG1. Cells were gated to exclude events in water and events due to cell death and debris.
as §1, with “BMP-7 at 430 ng/ml with” for “300 μM P123, followed by”, “treatments at 362 ng/ml” for “treatments”, “day” for “days”, “3, 314 ng/ml on day” for “3,”, “277 ng/ml on day 8 (media was added at 10% volume resulting in decreased concentrations).” for “8.”, “BMP-7” for “P123”
Differentiation of chemo-resistant cancer stem cells, specifically a loss of its stem cell phenotype and self-renewal ability, could be a viable approach to the treatment of tumor recurrence and metastasis (Chirasani S R, Sternjak A, Wend P, et al. Bone morphogenetic protein-7 release from endogenous neural precursor cells suppresses the tumourigenicity of stem-like glioblastoma cells. Brain 2010, 133:1961-1972). Although this approach may or may not directly kill the cancer cells, it could make CSCs more responsive to conventional chemotherapies. Therefore, Peptide 123 and BMP-7 were examined to determine if they affected differentiation of human breast cancer stem cells. Sensitive flow cytometry method (Gupta V et al., Methods Mol Biol. 2011, 716: 179-191) to quantify CD44+, indicating stem cell phenotype, and E-cadherin+, indicating epithelial phenotype cells, after treatment with or without P123 (SEQ ID NO: 1) and BMP-7. Human breast cancer stem cells were grown in non-adherent cell suspension in serum-free medium for 8 Days. […] Importantly, the percent loss of CD44+ cells after treatment with the P123, 50%, was greater than that after treatment with BMP-7, 19% (FIGS. 4 and 5). Furthermore, a gain in E-cadherin+ cells was observed, which was proportional to the loss of CD44+ cells (FIGS. 4-6). Similarly, the percent gain in E-cadherin+ cells after treatment with P123, 50%, was greater than that after treatment with BMP-7, 19%, (FIG. 7).

Row | Molecule | inhibition of bulk tumor cell growth from prostate cancer [1] | inhibition of mammosphere / tumorsphere formation ([2]; 300 μM) | inhibition of mammosphere / tumorsphere formation ([2]; 300 μM, listed as P123) | percent loss of CD44+ cells ([3]; 300 uM, treated days 2, 3, 5, 8) [%] | percent gain in E-cadherin+ cells ([3]; 300 uM) [%] | change in CD44+ cells (stem cell phenotype), in words ([3]; 300 uM, listed as P123) | change in E-Cadherin+ cells (epithelial phenotype), in words ([3]; 300 uM, listed as P123) | mammosphere formation after withdrawal of treatment ([2]; 500 ng/ml for 7 days, then 7 days with no treatment) | inhibition of mammosphere / tumorsphere formation ([2]; 500 ng/ml) | percent gain in E-cadherin+ cells ([3]; 314-430 ng/ml) [%] | percent loss of CD44+ cells ([3]; 314-430 ng/ml) [%] | change in CD44+ cells (stem cell phenotype), in words ([3]; 314-430 ng/ml) | change in E-Cadherin+ cells (epithelial phenotype), in words ([3]; 314-430 ng/ml)
1 | CYFDDSSNVLCKKYRS [Peptide 123, TDFRP, a peptide agonist of BMP signaling] | capable of inhibiting bulk tumor cell growth from prostate cancer | profound inhibition of tumorsphere formation | profound inhibition of mammosphere formation | 50 | 50 | marked decline in CD44+ cells; also recorded: marked decrease in CD44+ cells | marked increase in E-Cadherin+ cells; also recorded: majority of P123 treated cells were E-Cadherin+ |  |  |  |  |  | 
2 | BMP-7: bone morphogenetic protein-7, member of the transforming growth factor-beta superfamily (protein, UniProt P18075 293-431, looked up) Bone morphogenetic protein 7: STGSKQRSQNRSKTPKNQEALRMANVAENSSSDQRQACKKHELYVSFRDLGWQDWIIAPEGYAAYYCEGECAFPLNSYMNATNHAIVQTLVHFINPETVPKPCCAPTQLNAISVLYFDDSSNVILKKYRNMVVRACGCH |  |  |  |  |  |  |  | regained the ability to form tumorspheres; also recorded: significant increase in Mammosphere formation | inhibited tumorsphere formation; also recorded: moderate inhibition of mammosphere formation | 19 | 19 | marked decline in CD44+ cells; also recorded: a decrease in CD44+ cells | an increase in E-Cadherin cells; also recorded: an increase E-Cadherin+ with a large portion of CD44+ remaining
